Here are results for 2 compounds from patent US4687769A, “3-(3,3,3-trifluoropropenyl) cephalosporins” (Meiji Seika Kaisha, Ltd., priority 1984, dated 1987).

Values after ≈ are worked out from the molar mass of the structure shown.

Common to all, as to experiment: Minimum inhibitory concentration (MIC)
Holding throughout (type): cell-based

The test system of assay [1] is Salmonella typhimurium LT-2. Conditions: Salmonella enterica, read-out: Minimum inhibitory concentrations (MIC). An excerpt:
(§1) The cephem compounds (I) of this invention and the salts or ester thereof are all novel compounds which are useful as antibacterial agent. To illustrate the utility of the new compound of this invention, we have determined and show below the minimum inhibitory concentrations of some representative examples of the new cephem compounds of this invention against growth of various bacteria in Table 1.

A further assay has as its system Proteus mirabilis GN-79. Conditions: GN79, read-out: Minimum inhibitory concentrations (MIC).
Text: as §1

Assay [2] has as its system Pseudomonas cepacia M-0527. To be noted: Burkholderia cepacia, M0527, read-out: Minimum inhibitory concentrations (MIC).
Text: as §1

Assay [3] deals with Staphylococcus aureus Smith. Conditions: read-out: Minimum inhibitory concentrations (MIC).
Text: as §1

In assay [4] the test system is Serratia marcescens No. 1. Conditions: read-out: Minimum inhibitory concentrations (MIC).
Text: as §1

Another assay concerns Proteus rettgeri GN-624. To be noted: Providencia rettgeri, GN624, read-out: Minimum inhibitory concentrations (MIC).
Text: as §1

Assay [5] concerns Staphylococcus aureus 209P JC-1. Conditions: read-out: Minimum inhibitory concentrations (MIC).
Text: as §1

In the next assay the test system is Proteus vulgaris GN-76. Conditions: GN76, read-out: Minimum inhibitory concentrations (MIC).
Text: as §1

In assay [6] the test system is Escherichia coli NIHJ JC-2. Conditions: NIHJJC2, read-out: Minimum inhibitory concentrations (MIC).
Text: as §1

The subject of assay [7] is Klebsiella pneumoniae PCI-602. Conditions: PCI602, read-out: Minimum inhibitory concentrations (MIC).
Text: as §1

Turning to `CO/N=C(\C(=O)NC1C(=O)N2C(C(=O)O)=C(/C=C\C(F)(F)F)CSC12)c1csc(N)n1` (stereo not drawn) [Compound (A), 7-[2-methoxyimino-2-(2-aminothiazol-4-yl)acetamido]-3-(3,3,3-trifluoropropenyl)-3-cephem-4-carboxylic acid (syn-isomer, cis-isomer)], the MIC was 0.39 µg/mL (≈ 0.817 µM) in assay [1]; 0.39 µg/mL (≈ 0.817 µM) in the assay with Proteus mirabilis GN-79; 6.25 µg/mL (≈ 13.1 µM) in assay [2]; 0.39 µg/mL (≈ 0.817 µM) in assay [3]; 0.2 µg/mL (≈ 0.419 µM) in assay [4]; 3.13 µg/mL (≈ 6.56 µM) with Proteus rettgeri GN-624. For the same compound, the MIC in assay [5] was found to be 0.2 µg/mL (≈ 0.419 µM); with Proteus vulgaris GN-76, 0.2 µg/mL (≈ 0.419 µM); in assay [6] it was 0.78 µg/mL (≈ 1.63 µM); in [7], 0.39 µg/mL (≈ 0.817 µM).

`CO/N=C(\C(=O)NC1C(=O)N2C(C(=O)O)=C(/C=C/C(F)(F)F)CSC12)c1csc(N)n1` (stereo not drawn) [Compound (B), 7-[2-methoxyimino-2-(2-aminothiazol-4-yl)acetamido]-3-(3,3,3-trifluoropropenyl)-3-cephem-4-carboxylic acid (syn-isomer, trans-isomer)]: the MIC in assay [1] stood at 0.2 µg/mL (≈ 0.419 µM); in the assay with Proteus mirabilis GN-79 it was 0.39 µg/mL (≈ 0.817 µM); in assay [2], 6.25 µg/mL (≈ 13.1 µM); in assay [3], 0.78 µg/mL (≈ 1.63 µM); in assay [4], 0.39 µg/mL (≈ 0.817 µM); in the assay with Proteus rettgeri GN-624, 1.56 µg/mL (≈ 3.27 µM). The MIC in assay [5] is 0.39 µg/mL (≈ 0.817 µM); in the assay with Proteus vulgaris GN-76, 0.2 µg/mL (≈ 0.419 µM); in [6] it was 0.39 µg/mL (≈ 0.817 µM); in assay [7], 0.39 µg/mL (≈ 0.817 µM).
